Assay results: PubChem BioAssay AID2253 (Southern Research Specialized Biocontainment Screening …, 2010)
“And” between values parts separate entries of the source, which are not always exact repeats. Equal entries are not always repeated.

System: THP-1 viability, CellTiter-Glo luminescence, 72 h
Assay: THP-1 cell cytotoxicity, dose response, cytotoxicity control for Salmonella PhoP regulon inhibitors, S. typhimurium screen hits (AID 2253)

SMILES	EC50
CC[n+]1c(/C=C/N(C)c2ccccc2)n(-c2ccccc2)c2ccc(-c3nc4ccccc4s3)cc21	0.46 µM
c1ccc(Nc2ccnc(Nc3ccccc3)n2)cc1	35 µM
CCCCCCCOC(=O)C[N+](C)(C)CCOC1CC2CCC1(C)C2(C)C (centres undefined)	2.07 µM
Cc1cc(/C=N/n2c(COc3ccccc3)nc3ccccc3c2=O)c(O)c([N+](=O)[O-])c1	4.71 µM
Cc1cc(C(=O)N/N=C/c2ccc([N+](=O)[O-])s2)n[nH]1	12.8 µM
CCCCCCCCCCOC(=O)Cn1c(COc2ccccc2OC)[n+](C)c2ccccc21	2.2 µM
CCc1ccc(S(=O)(=O)/N=C2/C=C(Sc3ncn[nH]3)C(=O)c3ccccc32)cc1	4.28 µM
O=C(N/N=C/c1cc([N+](=O)[O-])ccc1O)C1CC1	26 µM
Cc1ccc2c(c1)[nH]c1c(N3CCN(Cc4ccccc4)CC3)ncnc12	18.9 µM
CC(=O)NC(c1ccc(C)cc1)c1cc([N+](=O)[O-])c2cccnc2c1O (centres undefined)	6.41 µM
CCn1c2ccccc2c2cc(/C=N/NC(=O)c3ccccc3)ccc21	4.12 µM
CN1CCN(C(c2ccc(C(F)(F)F)cc2)c2cc(Cl)c3cccnc3c2O)CC1 (centres undefined)	2.96 µM
Cc1cc(-c2csc(N)n2)c(C)n1-c1ccccc1	16.9 µM
CCCCCCCCOC(=O)C1=C(C)Nc2nnnn2C1c1cccs1 (centres undefined)	21.8 µM
CC(=O)Oc1cc2cccc(OC(C)=O)c(=O)c2c(OC(C)=O)c1OC(C)=O	14.6 µM
Cc1ccc(Nc2nc(N)c3ccccc3n2)cc1Cl	16.3 µM
OC1(c2cccc(C(F)(F)F)c2)CCN(c2ncnc3c2[nH]c2ccccc23)CC1	17.6 µM
Nc1nonc1-n1nnc(C(=O)N/N=C/c2cc(Br)ccc2O)c1CSC1=NCCS1	1.54 µM
Clc1ccc(-c2csc3ncnc(N4CCc5ccccc5C4)c23)cc1	44 µM
Oc1ccccc1CN1CCCN(Cc2ccccc2O)C1	23.8 µM
O=C(c1ccccc1)c1c2c(cc3sc4ccccc4[n+]13)-c1cccc3cccc-2c13	1.28 µM

SMILES	EC50
COc1ccc(-c2c/c(=N\c3nc(-c4ccccc4)c(C)s3)c3ccccc3o2)cc1O	2.36 µM
O=C1C(SCCO)=C(SCCO)C(=O)c2ccccc21	8.13 µM
C/C(=N\Nc1nc2ccccc2[nH]1)c1ccccn1	0.92 µM
C#CCOc1ccc(/C=C2\SC(=S)N(Cc3cccnc3)C2=O)cc1	5.67 µM
N=C(N)SCc1cn(-c2ccccc2)nc1-c1ccc(Br)cc1	4.83 µM
Cc1cc2cc(CCNC(=O)c3cccs3)c(=O)[nH]c2cc1C	17.2 µM
Cc1ccc2cccnc2c1NC(=S)NC(=O)c1ccccc1	25.2 µM
Cc1ccc(N=Nc2ccc(O)c(/C=N\NC(=O)c3ccc(N)cc3)c2)cc1C	3.29 µM
Cc1cccc(N2CCc3c2nc2ccccc2c3N)c1	47.6 µM
O=c1[nH][nH]c(-c2ccccc2O)c1C(C[N+](=O)[O-])c1cccc(Cl)c1 (centres undefined)	33.4 µM
Cc1[nH]c2ccccc2c1C(=O)COC(=O)c1ccc([N+](=O)[O-])s1	47.5 µM
Cc1ccc(Nc2cc(C)nn2-c2nc(C)cc(=O)[nH]2)cc1	0.62 µM
N#C/C(=C\c1c(Cl)cccc1Cl)c1nc2ccccc2[nH]1	27.9 µM
c1ccc2c(c1)CCN(c1ncnc3c1[nH]c1ccccc13)C2	10.7 µM
O=C(N/N=C/c1cc(Cl)ccc1O)c1cccnc1	2.08 µM
C/C(CC(=O)Nc1ccc(Cl)c(C(F)(F)F)c1)=N\NC(=O)c1cc2ccccc2cc1O	8.06 µM
CN(O)/C=c1/ccc2c(n1)C(=O)C=CC=2	23.3 µM
COC(=O)c1ccc(Nc2cc(C)nc3ccccc23)cc1	6.32 µM
Clc1ccc(Cl)c(OCCCCNCc2ccccc2)c1	27.4 µM
O=C(Nc1cccc(Cl)c1)Nc1ccc2c(c1)OCO2	36.8 µM
O=C1c2[nH]nc(-c3ccccc3O)c2C(c2ccc(F)cc2)N1Cc1ccco1 (centres undefined)	20 µM

SMILES	EC50
Cc1cc(C(=O)N/N=C/c2cc(Br)cc(Br)c2OC(=O)c2ccccc2)n[nH]1	7.53 µM
O=C(CN1CCCc2ccccc21)N/N=C/c1c(O)ccc2ccccc12	3.11 µM
O=S1(=O)Nc2c(ccc3cccnc23)-c2ccccc21	0.69 µM
Cc1ccsc1C=Nc1ccc(O)cc1	25.9 µM
FC(F)(F)c1ccc2c(c1)N(CCCN1CCN(CCCl)CC1)c1ccccc1S2	20.6 µM
Cc1nn(-c2ccccc2)c(C)c1/C=N/NC(=O)c1cc(-c2cccc3ccccc23)n[nH]1	17.4 µM
O=C(N/N=C/c1ccc([N+](=O)[O-])s1)C(O)c1ccccc1 (centres undefined)	12.1 µM
Oc1c(Cl)cc(Cl)c2cccnc12	12.8 µM
COC(=O)C(C)NC(=S)N1CCN(c2c(F)cc3c(=O)c(C(=O)O)cn(C4CC4)c3c2OC)CC1C (centres undefined)	20 µM
Cc1ccccc1OCCSCc1nc2ccccc2[nH]1	30.4 µM
NCCc1c(-c2ccccc2)n(-c2ccccc2)c2ccccc12	4.76 µM
C#CCN1C(=O)C(O)(CC(=O)c2ccc(OC)c(OC)c2)c2ccccc21 (centres undefined)	30.5 µM
O=C(Nc1ccc(Cl)c(Cl)c1)Nc1ccccc1O	21.1 µM
O=c1[nH]c(CSc2ncc(-c3ccc(F)cc3)n2Cc2ccco2)nc2ccccc12	47 µM
C/C(=N/Nc1nc(-c2ccccc2)cc(-c2ccc(F)cc2)n1)c1cccc(N)c1	18.1 µM
CCN1CCN(C(c2ccc(C(F)(F)F)cc2)c2ccc3cccnc3c2O)CC1 (centres undefined)	1.78 µM
Clc1cc(Br)ccc1OCCCNCc1ccccc1	22.8 µM
NNC(=O)c1cc2ccccc2cc1O	11.9 µM
Cc1ccccc1Nc1cc(C)c2c(O)cccc2n1	7.56 µM
Cc1ccc(S(=O)(=O)/N=C2/C=C(Sc3ncn[nH]3)C(=O)c3ccccc32)c(C)c1	5.51 µM
Oc1ccc(NCc2ccccc2OCc2ccccc2F)cc1	19.9 µM

SMILES	EC50
CN(c1ccccc1)S(=O)(=O)c1cc(C(=O)Nc2nc3ccccc3[nH]2)ccc1Cl	24.1 µM
Cc1ccc(C(C[N+](=O)[O-])c2c(C)cc3ccccn23)cc1 (centres undefined)	15.4 µM
O=S(=O)(Nc1cc(Sc2cccc3cccnc23)c(O)c2ccccc12)c1ccc(F)cc1	2.82 µM
CN1CCN(CCCN2c3ccccc3Sc3ccc(Cl)cc32)CC1	14.1 µM
COc1ccc(-c2csc(NCc3ccco3)n2)cc1	38.5 µM
Cc1cc(SCC(=O)N/N=C/c2ccc(O)c(O)c2O)c(C)cc1Br	2.76 µM
CCCCOc1ccc(Br)cc1CSC(=N)N	5.78 µM
COc1cc(C(=O)NC(=S)Nc2ccc3oc(=O)ccc3c2)cc(OC)c1OC	45.9 µM
NC(=NCCCCCCN=C(N)/N=C(\N)Nc1ccc(Cl)cc1)/N=C(\N)Nc1ccc(Cl)cc1	3.09 µM and 3.04 µM and 2.9 µM
C1=C(CCNc2ncnc3c2[nH]c2ccccc23)CCCC1	6.37 µM
Cc1nc(N)nc(N)c1/C=C/C(C)(C)c1ccc(Cl)cc1	< 0.1 µM
Clc1ccc(-c2c[n+](Cc3ccc(Cl)cc3Cl)c3n2CCCCC3)cc1	3.61 µM
CCn1c(SCC(=O)Nc2ccc3c(c2)oc2ccccc23)nnc1-c1ccc(N)cc1	29.9 µM
C=CCNc1ncnc2c1[nH]c1ccccc12	46 µM
CC[n+]1c(/C=C/c2ccc(N(C)C)cc2)ccc2ccccc21	0.64 µM
CC(C)c1ccc(C2C3CSCC=C3C(C#N)=C(N)C2(C#N)C#N)cc1 (centres undefined)	39.7 µM
Oc1cccc(/C=N/Nc2ccc(Cl)nn2)c1O	0.66 µM
N#CC1=C(N)Oc2c(O)cc3ccccc3c2C1c1ccsc1 (centres undefined)	21.3 µM
Oc1cccc2ccc[n+](CC(O)Cn3c4ccccc4c4ccccc43)c12 (centres undefined)	11.1 µM
c1ccc(-c2cccc(-c3ccccn3)n2)nc1	0.45 µM
Cc1cccc(Nc2nc(NCc3ccco3)c3ccccc3n2)c1	5.29 µM
